How the values were obtained:
[1] = molecular target: rat orexin 1 receptor (Rattus norvegicus, UniProt P56718); experiment: Rat orexin 1 receptor radioligand binding (competitive); details: HEK293 cells stably expressing rat orexin 1 receptor; 4 nM radioligand; averages of 2-20 runs; read-out: rOX1 Ki
How it was run: (§1)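 Competition binding used HEK293 cells expressing rat OX1 or CHO cells expressing human OX1, with 4 nM final [3H]-labelled thiazolyl-oxadiazolyl-pyrrolidinyl methanone radioligand in PBS. Compounds were tested at 7 concentrations (0.1 nM–10 μM) for 60 min at room temperature, then filtered; 10 μM almorexant defined nonspecific binding. Ki was derived from the one-site IC50 and the radioligand Kd.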

[2] = molecular target: human orexin 1 receptor (Homo sapiens (Human), UniProt O43613); experiment: Human orexin 1 receptor radioligand binding (competitive); details: CHO cells stably expressing human orexin 1 receptor; 4 nM radioligand; averages of 2-20 runs; read-out: hOX1 Ki
How it was run: as §1

[3] = molecular target: human orexin 2 receptor (Homo sapiens (Human), UniProt O43614); experiment: Human orexin 2 receptor radioligand binding ([3H]-EMPA competition); details: HEK293 stably expressing human orexin 2 receptor; 2 nM [3H]-EMPA; averages of 2-20 runs; read-out: hOX2 Ki
How it was run: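 Membranes-free whole HEK293 cells stably expressing human OX2 receptor incubated with [3H]-EMPA and compound (7 concentrations, 0.1 nM–10 μM, ≤0.1% DMSO) for 60 min at room temperature; nonspecific binding with 10 μM almorexant. Filtration and scintillation counting; one-site IC50 converted to Ki using predetermined Kd, triplicates averaged over 2-20 runs.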

human orexin 2 receptor, sequence (O43614 whole entry): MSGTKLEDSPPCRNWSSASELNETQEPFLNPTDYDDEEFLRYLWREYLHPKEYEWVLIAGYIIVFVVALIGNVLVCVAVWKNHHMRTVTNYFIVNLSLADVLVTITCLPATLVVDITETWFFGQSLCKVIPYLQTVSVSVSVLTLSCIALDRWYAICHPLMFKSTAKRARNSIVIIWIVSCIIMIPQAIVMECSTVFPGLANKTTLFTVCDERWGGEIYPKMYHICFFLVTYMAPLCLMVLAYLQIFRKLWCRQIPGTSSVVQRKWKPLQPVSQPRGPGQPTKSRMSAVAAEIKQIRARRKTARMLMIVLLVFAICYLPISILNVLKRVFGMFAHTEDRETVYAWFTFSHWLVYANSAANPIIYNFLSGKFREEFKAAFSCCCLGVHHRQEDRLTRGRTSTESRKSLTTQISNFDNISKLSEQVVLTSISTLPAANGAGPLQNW
human orexin 1 receptor, sequence (O43613 whole entry): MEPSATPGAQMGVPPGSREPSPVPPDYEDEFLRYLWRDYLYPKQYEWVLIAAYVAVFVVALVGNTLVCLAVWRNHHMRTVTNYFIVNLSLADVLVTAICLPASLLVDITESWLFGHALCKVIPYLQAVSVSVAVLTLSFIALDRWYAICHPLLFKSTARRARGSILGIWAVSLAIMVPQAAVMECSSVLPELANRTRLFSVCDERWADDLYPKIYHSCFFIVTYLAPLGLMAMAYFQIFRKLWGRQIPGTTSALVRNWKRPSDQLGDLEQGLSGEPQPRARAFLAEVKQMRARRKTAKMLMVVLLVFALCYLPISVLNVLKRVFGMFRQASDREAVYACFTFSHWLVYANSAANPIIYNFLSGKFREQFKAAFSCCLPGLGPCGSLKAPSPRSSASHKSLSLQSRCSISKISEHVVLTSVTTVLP

Compound	Ki [1] [µM]	Ki [2] [µM]	Ki [3] [µM]
C[C@@H]1[C@H]2C[C@@H](Oc3ccc(C(F)(F)F)cn3)[C@H](C2)N1C(=O)c1ccccc1-c1ccnc(F)c1 [Example 172, [2-(2-fluoro-4-pyridyl)phenyl]-[(1R,2R,4S,5R)-2-methyl-5-[[5-(trifluoromethyl)-2-pyridyl]oxy]-3-azabicyclo[2.2.1]heptan-3-yl]methanone]	0.066	0.067	> 10
C[C@@H]1[C@H]2C[C@@H](Oc3ccc(C(F)(F)F)cn3)[C@H](C2)N1C(=O)c1ccccc1-c1cccc([N+](=O)[O-])n1 [Example 174, [(1R,2R,4S,5R)-2-methyl-5-[[5-(trifluoromethyl)-2-pyridyl]oxy]-3-azabicyclo[2.2.1]heptan-3-yl]-[2-(6-nitro-2-pyridyl)phenyl]methanone]	0.008	0.009	3.94
C[C@@H]1[C@H]2C[C@@H](Oc3ccc(C(F)(F)F)cn3)[C@H](C2)N1C(=O)c1ccccc1-c1cccc(Br)n1 [Example 175, [2-(6-bromo-2-pyridyl)phenyl]-[(1R,2R,4S,5R)-2-methyl-5-[[5-(trifluoromethyl)-2-pyridyl]oxy]-3-azabicyclo[2.2.1]heptan-3-yl]methanone]	0.013	0.015	0.837
Cc1ccc(-n2nccn2)c(C(=O)N2[C@H](CO)[C@@H]3CC[C@H]2[C@H](Oc2ccc(C(F)(F)F)cn2)C3)n1 [Example 176, [(1R,2S,4S,5R)-2-(hydroxymethyl)-5-[[5-(trifluoromethyl)-2-pyridyl]oxy]-3-azabicyclo[2.2.2]octan-3-yl]-[6-methyl-3-(triazol-2-yl)-2-pyridyl]methanone]	0.033	0.035	8.1
Cc1ccc(C(=O)N2[C@H](C)[C@H]3C[C@@H](Oc4ccc(Cl)cn4)[C@@H]2C3)c(-n2nccn2)n1 [Example 193, [(1R,2R,4S,5R)-5-[(5-chloro-2-pyridyl)oxy]-2-methyl-3-azabicyclo[2.2.1]heptan-3-yl]-[6-methyl-2-(triazol-2-yl)-3-pyridyl]methanone]	0.008	0.008	4.7
Cc1cnc(-n2nccn2)c(C(=O)N2[C@H](C)[C@H]3C[C@@H](Oc4ccc(Cl)cn4)[C@@H]2C3)c1 [Example 194, [(1R,2R,4S,5R)-5-[(5-chloro-2-pyridyl)oxy]-2-methyl-3-azabicyclo[2.2.1]heptan-3-yl]-[5-methyl-2-(triazol-2-yl)-3-pyridyl]methanone]	0.005	0.005	2.9
[2H]C1([2H])[C@H]2C[C@@H]([C@@H]1Oc1ccc(Cl)cn1)N(C(=O)c1cccc(F)c1-n1nccn1)[C@@H]2C [Example 197, [(1R,3R,4S,6R)-3-[(5-chloro-2-pyridyl)oxy]-2,2-dideuterio-6-methyl-5-azabicyclo[2.2.1]heptan-5-yl]-[3-fluoro-2-(triazol-2-yl)phenyl]methanone]	0.004	0.003	0.481
[2H]C1([2H])[C@H]2C[C@@H]([C@@H]1Oc1ccc(C(F)(F)F)cn1)N(C(=O)c1cccc(F)c1-n1nccn1)[C@@H]2C [Example 199, [(1R,3R,4S,6R)-2,2-dideuterio-6-methyl-3-[[5-(trifluoromethyl)-2-pyridyl]oxy]-5-azabicyclo[2.2.1]heptan-5-yl]-[3-fluoro-2-(triazol-2-yl)phenyl]methanone]	0.005	0.005	0.556

Source: patent US9611262B2, “Substituted 2-azabicycles and their use as orexin receptor modulators” (JANSSEN PHARMACEUTICA NV, priority 2014, dated 2017)
